We go through 16 compounds from article PMC6028563, “Probing Substituents in the 1- and 3-Position: Tetrahydropyrazino-Annelated Water-Soluble Xanthine Derivatives as Multi-Target Drugs With Potent Adenosine Receptor Antagonistic Activity” (Frontiers in Chemistry, 2018).

One experiment has as its target T1, recombinant human MAO-B (Homo sapiens, UniProt P27338).
T1 construct: purchased Sigma-Aldrich M7441; host or cells: baculovirus-infected insect cells
T1 sequence (P27338 1-520): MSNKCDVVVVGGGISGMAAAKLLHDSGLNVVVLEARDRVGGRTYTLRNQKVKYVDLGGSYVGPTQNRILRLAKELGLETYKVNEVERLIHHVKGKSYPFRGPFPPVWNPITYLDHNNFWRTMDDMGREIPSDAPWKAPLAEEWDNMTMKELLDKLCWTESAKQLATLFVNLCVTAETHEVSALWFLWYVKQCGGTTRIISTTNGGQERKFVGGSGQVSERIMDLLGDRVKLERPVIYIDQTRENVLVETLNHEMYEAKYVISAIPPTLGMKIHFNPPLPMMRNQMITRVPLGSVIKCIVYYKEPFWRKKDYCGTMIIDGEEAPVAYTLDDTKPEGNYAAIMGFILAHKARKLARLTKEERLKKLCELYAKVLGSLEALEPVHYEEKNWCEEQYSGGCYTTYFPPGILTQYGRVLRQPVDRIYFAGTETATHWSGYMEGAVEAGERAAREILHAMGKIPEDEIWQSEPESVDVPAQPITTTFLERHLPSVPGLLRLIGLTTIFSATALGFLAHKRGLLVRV
In words: Monoamine oxidase assay (Amplex Red), MAO-B. The experiment is classed as biochemical. The settings on record: for IC50: n = 3, read-out: IC50 ± SEM, Human MAO-B; for inhibition at 10 µM: at 10,000 nM (10 μM), read-out: % inhibition at indicated concentration, Human MAO-B. A digest of the protocol:
(§1)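 Recombinant human MAO-A and MAO-B, expressed in baculovirus-infected insect cells, were assayed by Amplex Red fluorometric detection. Rat MAO-B inhibition used mitochondria-enriched fractions from male Sprague Dawley rat liver.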

The next experiment addresses T2, recombinant human MAO-A (Homo sapiens, UniProt P21397).
T2 construct: purchased Sigma-Aldrich M7316; host or cells: baculovirus-infected insect cells
T2 sequence (P21397 1-527): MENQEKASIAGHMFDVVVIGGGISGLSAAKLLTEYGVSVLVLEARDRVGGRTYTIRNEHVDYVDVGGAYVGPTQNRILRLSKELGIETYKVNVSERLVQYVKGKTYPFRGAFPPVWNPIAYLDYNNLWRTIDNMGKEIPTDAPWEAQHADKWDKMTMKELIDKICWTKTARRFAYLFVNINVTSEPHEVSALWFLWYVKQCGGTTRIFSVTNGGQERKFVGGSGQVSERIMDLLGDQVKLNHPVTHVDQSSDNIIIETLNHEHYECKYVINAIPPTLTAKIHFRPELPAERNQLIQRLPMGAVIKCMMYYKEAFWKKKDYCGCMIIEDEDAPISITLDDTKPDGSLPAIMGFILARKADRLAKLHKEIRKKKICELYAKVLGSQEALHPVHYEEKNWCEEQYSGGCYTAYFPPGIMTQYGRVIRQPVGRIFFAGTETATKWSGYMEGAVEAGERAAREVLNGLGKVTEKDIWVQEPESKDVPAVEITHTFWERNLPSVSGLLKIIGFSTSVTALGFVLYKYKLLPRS
Kind of experiment: Monoamine oxidase assay (Amplex Red), MAO-A. The experiment is classed as biochemical. The settings on record: for inhibition at 10 µM: at 10,000 nM, read-out: % inhibition at indicated concentration, Human MAO-A; for IC50: n = 3, read-out: IC50 ± SEM, Human MAO-A. A digest of the protocol: as §1

For another experiment, the target named is T3, human A2A AR (Homo sapiens, UniProt P29274).
T3 construct: expressed in transfected cells; host or cells: CHO cells
Kind of experiment: Radioligand binding assay at human A2A AR vs. [^3H]MSX-2. The settings on record: CHO cell membranes, n = 3, read-out: Ki ± SEM, A2A vs. [^3H]MSX-2. The method in brief:
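Using CHO membranes with one recombinant human AR subtype each (A1, A2A, A2B, A3), plus rat cortical (A1) and striatal (A2A) membranes, compounds are tested in radioligand binding to give receptor affinity and subtype selectivity.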

A value given as a limit tells only on which side of the number the result lay.

T3 sequence (P29274 whole entry): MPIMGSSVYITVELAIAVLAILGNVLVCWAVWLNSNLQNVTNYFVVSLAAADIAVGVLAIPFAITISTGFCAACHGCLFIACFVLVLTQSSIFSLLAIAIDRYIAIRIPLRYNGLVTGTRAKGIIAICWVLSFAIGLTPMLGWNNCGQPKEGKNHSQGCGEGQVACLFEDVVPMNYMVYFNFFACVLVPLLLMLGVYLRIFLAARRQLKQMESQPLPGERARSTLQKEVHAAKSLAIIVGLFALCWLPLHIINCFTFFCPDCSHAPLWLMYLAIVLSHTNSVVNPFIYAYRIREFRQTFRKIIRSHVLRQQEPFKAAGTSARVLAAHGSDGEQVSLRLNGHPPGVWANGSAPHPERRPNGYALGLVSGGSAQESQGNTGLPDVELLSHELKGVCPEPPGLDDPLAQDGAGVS

As a reminder, the IC50 is the concentration that inhibits the measured activity by half. Broadly, the Ki is the equilibrium dissociation constant of an inhibitor or competing ligand from its target. Consider `C#CCn1c(=O)c2c(nc3n2CCN(Cc2ccc(Cl)c(Cl)c2)C3)n(C)c1=O` [Compound 19a, 8-(3,4-dichlorobenzyl)-1-methyl-3-propargyl-6,7,8,9-tetrahydropyrazino[2,1-f]purine-2,4(1H,3H)-dione], for which the results for the IC50 on recombinant human MAO-B and at recombinant human MAO-A were 679 ± 17 nM and > 10000 nM, respectively. The inhibition at 10 µM at recombinant human MAO-A came to 12%. In addition, the Ki on human A2A AR was 1580 nM.

In the case of `CCn1c(=O)c2c(nc3n2CCN(Cc2cc(Br)ccc2F)C3)n(C)c1=O` [Compound 14o, 8-(5-bromo-2-fluorobenzyl)-3-ethyl-1-methyl-6,7,8,9-tetrahydropyrazino[2,1-f]purine-2,4(1H,3H)-dione], the IC50 on recombinant human MAO-B is 3070 nM; at recombinant human MAO-A it was > 10000 nM. The inhibition at 10 µM on recombinant human MAO-A turned out to be 15%. In addition, at human A2A AR, the Ki was 1700 nM.

Turning to `CCn1c(=O)c2c(nc3n2CCN(Cc2cc(Cl)cc(Cl)c2)C3)n(CC)c1=O` [Compound 15m, 8-(3,5-dichlorobenzyl)-1,3-diethyl-6,7,8,9-tetrahydropyrazino[2,1-f]purine-2,4(1H,3H)-dione], at recombinant human MAO-B, the inhibition at 10 µM was determined as 66% and the IC50 was < 10000 nM. At recombinant human MAO-A, the inhibition at 10 µM is 1% and the IC50 is > 10000 nM. In addition, the Ki at human A2A AR was determined as 631 ± 122 nM.

For `CCn1c(=O)c2c(nc3n2CCN(Cc2cc(C(F)(F)F)ccc2Cl)C3)n(CC)c1=O` [Compound 15n, 8-(2-chloro-5-(trifluoromethyl)benzyl)-1,3-diethyl-6,7,8,9-tetrahydropyrazino[2,1-f]purine-2,4(1H,3H)-dione], on recombinant human MAO-B, the inhibition at 10 µM stood at 54% and the IC50 was ≤ 10000 nM. Besides, at recombinant human MAO-A, the inhibition at 10 µM is -4% and the IC50 was > 10000 nM. Also, the Ki at human A2A AR came to 613 ± 34 nM.

As to `CCn1c(=O)n(C)c(=O)c2c1nc1n2CCN(Cc2cc(Cl)cc(Cl)c2)C1` [Compound 16b, 8-(3,5-dichlorobenzyl)-1-ethyl-3-methyl-6,7,8,9-tetrahydropyrazino[2,1-f]purine-2,4(1H,3H)-dione], the IC50 at recombinant human MAO-B is 136 ± 5 nM. Besides, at recombinant human MAO-A, the inhibition at 10 µM came out at 8% and the IC50 is > 10000 nM. Further, at human A2A AR, the Ki is 2230 nM.

On to `CCn1c(=O)c2c(nc3n2CCN(Cc2cc(C(F)(F)F)ccc2F)C3)n(CC)c1=O` [Compound 15j, 1,3-diethyl-8-(2-fluoro-5-(trifluoromethyl)benzyl)-6,7,8,9-tetrahydropyrazino[2,1-f]purine-2,4(1H,3H)-dione], for which, on recombinant human MAO-B, the inhibition at 10 µM was 58% and the IC50 was < 10000 nM. Besides, on recombinant human MAO-A, the inhibition at 10 µM was determined as 7% and the IC50 is > 10000 nM. The Ki at human A2A AR was 781 ± 68 nM.

Regarding `CCn1c(=O)c2c(nc3n2CCN(Cc2cc(F)c(F)c(F)c2)C3)n(CC)c1=O` [Compound 15r, 1,3-diethyl-8-(3,4,5-trifluorobenzyl)-6,7,8,9-tetrahydropyrazino[2,1-f]purine-2,4(1H,3H)-dione], at recombinant human MAO-B, the IC50 is 524 ± 26 nM. Besides, on recombinant human MAO-A, the inhibition at 10 µM was determined as 7% and the IC50 was > 10000 nM. The Ki at human A2A AR was 4110 nM.

Take `CCn1c(=O)c2c(nc3n2CCN(Cc2cccc(C(F)(F)F)c2F)C3)n(C)c1=O` [Compound 14l, 3-ethyl-8-(2-fluoro-3-(trifluoromethyl)benzyl)-1-methyl-6,7,8,9-tetrahydropyrazino[2,1-f]purine-2,4(1H,3H)-dione]: the inhibition at 10 µM came to 65% on recombinant human MAO-B and 8% on recombinant human MAO-A. Further, the values for the IC50 at recombinant human MAO-B and at recombinant human MAO-A were < 10000 nM and > 10000 nM, respectively. Moreover, the Ki at human A2A AR turned out to be 2020 nM.

On to `CCn1c(=O)c2c(nc3n2CCN(Cc2cc(Br)ccc2F)C3)n(CC)c1=O` [Compound 15l, 8-(5-bromo-2-fluorobenzyl)-1,3-diethyl-6,7,8,9-tetrahydropyrazino[2,1-f]purine-2,4(1H,3H)-dione], for which, on recombinant human MAO-B, the IC50 was 1310 nM. Besides, on recombinant human MAO-A, the inhibition at 10 µM was 8% and the IC50 was > 10000 nM. Also, the Ki at human A2A AR was 598 ± 92 nM.

For the compound `CCn1c(=O)c2c(nc3n2CCN(Cc2cc(Cl)ccc2Cl)C3)n(C)c1=O` [Compound 14j, 8-(2,5-dichlorobenzyl)-3-ethyl-1-dimethyl-6,7,8,9-tetrahydropyrazino[2,1-f]purine-2,4(1H,3H)-dione], the IC50 was 3980 nM on recombinant human MAO-B and > 10000 nM at recombinant human MAO-A. The inhibition at 10 µM at recombinant human MAO-A was determined as 23%. The Ki on human A2A AR was found to be 906 ± 73 nM.

With `CCn1c(=O)n(C)c(=O)c2c1nc1n2CCN(Cc2ccc(Cl)c(Cl)c2)C1` [Compound 16a, 8-(3,4-dichlorobenzyl)-1-ethyl-3-methyl-6,7,8,9-tetrahydropyrazino[2,1-f]purine-2,4(1H,3H)-dione], the IC50 at recombinant human MAO-B amounted to 106 ± 10 nM. Also, on recombinant human MAO-A, the inhibition at 10 µM came out at 6% and the concentration for half-maximal inhibition (IC50) is > 10000 nM. Besides, on human A2A AR, the Ki was 1620 nM.

For the compound `Cn1c(=O)c2c(nc3n2CCN(Cc2ccc(Cl)c(Cl)c2)C3)n(C2CC2)c1=O` [Compound 17, 8-(3,4-dichlorobenzyl)-1-cyclopropyl-3-methyl-6,7,8,9-tetrahydropyrazino[2,1-f]purine-2,4(1H,3H)-dione], the IC50 at recombinant human MAO-B stood at 3690 nM. Further, at recombinant human MAO-A, the inhibition at 10 µM came out at 7% and the IC50 is > 10000 nM.

Take `C#CCn1c(=O)c2c(nc3n2CCN(c2cccc(OC)c2)C3)n(CC)c1=O` [Compound 20c, 1-ethyl-8-(3-methoxyphenyl)-3-propargyl-6,7,8,9-tetrahydropyrazino[2,1-f]purine-2,4(1H,3H)-dione]: at recombinant human MAO-B, the inhibition at 10 µM was > 50% and the IC50 is ≤ 10000 nM. Further, on recombinant human MAO-A, the inhibition at 10 µM amounted to 6% and the IC50 is > 10000 nM. Also, the Ki on human A2A AR is 289 ± 85 nM.

As to `CCn1c(=O)c2c(nc3n2CCN(Cc2cc(C(F)(F)F)ccc2Cl)C3)n(C)c1=O` [Compound 14m, 8-(2-chloro-5-(trifluoromethyl)benzyl)-3-ethyl-1-methyl-6,7,8,9-tetrahydropyrazino[2,1-f]purine-2,4(1H,3H)-dione], the IC50 on recombinant human MAO-B came to 1430 nM. At recombinant human MAO-A, the inhibition at 10 µM was determined as 9% and the IC50 is > 10000 nM. For the same compound, on human A2A AR, the Ki was 881 ± 96 nM.

For the compound `CCn1c(=O)c2c(nc3n2CCN(Cc2ccc(F)c(Br)c2)C3)n(CC)c1=O` [Compound 15k, 8-(3-bromo-4-fluorobenzyl)-1,3-diethyl-6,7,8,9-tetrahydropyrazino[2,1-f]purine-2,4(1H,3H)-dione], the results for the inhibition at 10 µM at recombinant human MAO-B and at recombinant human MAO-A were 63% and -10%, respectively. For the same compound, the figures for the concentration for half-maximal inhibition (IC50) at recombinant human MAO-B and at recombinant human MAO-A were < 10000 nM and > 10000 nM, respectively. For the same compound, at human A2A AR, the Ki amounted to 756 ± 271 nM.

`C#CCn1c(=O)c2c(nc3n2CCN(Cc2cc(C(F)(F)F)ccc2Cl)C3)n(C)c1=O` [Compound 19b, 8-(2-chloro-5-(trifluoromethyl)benzyl)-1-methyl-3-propargyl-6,7,8,9-tetrahydropyrazino[2,1-f]purine-2,4(1H,3H)-dione]: on recombinant human MAO-B, the inhibition at 10 µM was found to be 59% and the IC50 was < 10000 nM. In addition, at recombinant human MAO-A, the inhibition at 10 µM was found to be 5% and the IC50 is > 10000 nM. Also, the Ki on human A2A AR worked out at 712 ± 129 nM.
